Laboratory results reported in ChEMBL document CHEMBL5579888, “A Comparative Study on the DNA Interactions and Biological Activities of Benzophenanthridine and Protoberberine Alkaloids” (J Nat Prod, 2024).
The source made the active and inactive calls. The calls are words filed in the database; no cut-off is given here.

Key:
[1] = target: dsDNA; test: Binding affinity to double stranded DNA ssab1 (unknown origin) incubated for 0.5 hrs in presence of different concentration DNA by fluorescence spectra analysis; type: nucleic-acid assay
[2] = test system: A-375; test: Inhibition of DNA synthesis in human A-375 cells at 5 uM incubated for 24 hrs by Edu incorporation based flow cytometry analysis; type: functional, cell-based
[3] = test system: A-375; test: Induction of cell cycle arrest in human A-375 cells assessed assessed as cell accumulation at G0/G1 phase at 5 uM incubated for 24 hrs by propidium iodide staining based flow cytometry (reference value: 54.25 %); type: functional
[4] = target: Quadruplex DNA; test: Displacement of ThT from human G4-quadruplex VEGF DNA 5'- GGGCGGGCCGGGGGCGGG-3' incubated for 0.5 hrs by SpectraMax M2 microplate reader analysis; type: nucleic-acid assay
[5] = test system: Quadruplex DNA; test: Binding affinity to human G4-quadruplex Pu27 DNA 5'- TGGGGAGGGTGGGGAGGGTGGGGAAGG-3' assessed as change in fluorescence intensity at 1 uM incubated for 0.5 hrs by fluorescence spectra analysis; type: nucleic-acid assay
[6] = test system: Quadruplex DNA; test: Binding affinity to human G4-quadruplex KRAS DNA 5'- AGGGCGGTGTGGGAAGAGGGAAGAGGGGGAGG-3' at 10 uM by CD spectra analysis; type: nucleic-acid assay
[7] = test system: A-375; test: Inhibition of RNA synthesis in human A-375 cells at 5 uM incubated for 24 hrs by EU incorporation based flow cytometry analysis; type: functional, cell-based
[8] = test system: Quadruplex DNA; test: Binding affinity to human G4-quadruplex VEGF DNA 5'- GGGCGGGCCGGGGGCGGG-3' at 20 uM by UV-Visible absorption spectroscopic analysis; type: nucleic-acid assay
[9] = test system: dsDNA; test: Binding affinity to double stranded DNA AT15 (unknown origin) incubated for 0.5 hrs in presence of different concentration DNA by fluorescence spectra analysis; type: nucleic-acid assay
[10] = target: Quadruplex DNA; test: Binding affinity to human G4-quadruplex Pu27 DNA 5'- TGGGGAGGGTGGGGAGGGTGGGGAAGG-3' assessed as change in fluorescence intensity at 1 uM incubated for 0.5 hrs in presence of different concentrations of DNA by fluorescence spectra analysis; type: nucleic-acid assay
[11] = target: Quadruplex DNA; test: Binding affinity to human G4-quadruplex Bcl2 DNA 5'- CGGGCGCGGGAGGAAGGGGGCGGGAGC-3' assessed as change in fluorescence intensity at 1 uM incubated for 0.5 hrs in presence of different concentrations of DNA by fluorescence spectra analysis; type: nucleic-acid assay
[12] = target: dsDNA; test: Binding affinity to double stranded DNA AT15-2AT (unknown origin) incubated for 0.5 hrs in presence of different concentration DNA by fluorescence spectra analysis; type: nucleic-acid assay
[13] = test system: Quadruplex DNA; test: Binding affinity to human G4-quadruplex KRAS DNA 5'- AGGGCGGTGTGGGAAGAGGGAAGAGGGGGAGG-3' at 20 uM by UV-Visible absorption spectroscopic analysis; type: nucleic-acid assay
[14] = target: dsDNA; test: Binding affinity to double stranded DNA AT12 (unknown origin) incubated for 0.5 hrs in presence of different concentration DNA by fluorescence spectra analysis; type: nucleic-acid assay
[15] = test system: Quadruplex DNA; test: Binding affinity to human G4-quadruplex Bcl2 DNA 5'- CGGGCGCGGGAGGAAGGGGGCGGGAGC-3' at 20 uM by UV-Visible absorption spectroscopic analysis; type: nucleic-acid assay
[16] = test system: Quadruplex DNA; test: Binding affinity to human G4-quadruplex KRAS DNA 5'- AGGGCGGTGTGGGAAGAGGGAAGAGGGGGAGG-3' assessed as change in fluorescence intensity at 1 uM incubated for 0.5 hrs by fluorescence spectra analysis; type: nucleic-acid assay
[17] = test system: Quadruplex DNA; test: Binding affinity to human G4-quadruplex c-kit2 DNA 5'- CGGGCGGGCGCGAGGGAGGGT-3' at 20 uM by UV-Visible absorption spectroscopic analysis; type: nucleic-acid assay
[18] = test system: A-375; test: Induction of apoptosis in human A-375 cells assessed assessed as viable cells at 5 uM incubated for 24 hrs by Annexin V-Elab Fluor 647/propidium iodide staining based flow cytometry (reference value: 91.1 %); type: functional; conditions: read-out: Activity
[19] = target: Salmon testes DNA; test: Displacement of Hoechst 33342 from salmon sperm DNA incubated for 0.5 hrs by SpectraMax M2 microplate reader analysis; type: nucleic-acid assay, Salmo salar
[20] = test system: dsDNA; test: Binding affinity to double stranded DNA ssab (unknown origin) assessed as change in fluorescence intensity at 1 uM incubated for 0.5 hrs by fluorescence spectra analysis; type: nucleic-acid assay
[21] = test system: A-375; test: Induction of DNA damage in human A-375 cells assessed as appearance of long DNA tails at 5 uM incubated for 24 hrs by comet assay; type: functional, cell-based
[22] = target: dsDNA; test: Binding affinity to double stranded DNA AT15-6AT (unknown origin) incubated for 0.5 hrs in presence of different concentration DNA by fluorescence spectra analysis; type: nucleic-acid assay
[23] = test system: Quadruplex DNA; test: Binding affinity to human G4-quadruplex 22AG DNA 5'- AGGGTTAGGGTTAGGGTTAGGG -3' at 20 uM by UV-Visible absorption spectroscopic analysis; type: nucleic-acid assay
[24] = test system: dsDNA; test: Binding affinity to double stranded DNA ssab (unknown origin) at 20 uM by UV-Visible absorption spectroscopic analysis; type: nucleic-acid assay
[25] = target: Quadruplex DNA; test: Displacement of ThT from human G4-quadruplex KRAS DNA 5'- AGGGCGGTGTGGGAAGAGGGAAGAGGGGGAGG-3' incubated for 0.5 hrs by SpectraMax M2 microplate reader analysis; type: nucleic-acid assay
[26] = test system: A-375; test: Induction of cell cycle arrest in human A-375 cells assessed assessed as cell accumulation at G2/M phase at 5 uM incubated for 24 hrs by propidium iodide staining based flow cytometry (reference value: 15.70 %); type: functional
[27] = test system: dsDNA; test: Binding affinity to double stranded DNA AT9 (unknown origin) incubated for 0.5 hrs in presence of different concentration DNA by fluorescence spectra analysis; type: nucleic-acid assay
[28] = test system: A-375; test: Induction of apoptosis in human A-375 cells assessed assessed as late apoptotic cells at 5 uM incubated for 24 hrs by Annexin V-Elab Fluor 647/propidium iodide staining based flow cytometry (reference value: 6.31 %); type: functional
[29] = target: dsDNA; test: Binding affinity to double stranded DNA ssab2 (unknown origin) incubated for 0.5 hrs in presence of different concentration DNA by fluorescence spectra analysis; type: nucleic-acid assay
[30] = test system: A-375; test: Induction of apoptosis in human A-375 cells assessed assessed as necrotic cells at 5 uM incubated for 24 hrs by Annexin V-Elab Fluor 647/propidium iodide staining based flow cytometry (reference value: 1.45 %); type: functional
[31] = target: Quadruplex DNA; test: Binding affinity to human G4-quadruplex VEGF DNA 5'- GGGCGGGCCGGGGGCGGG-3' assessed as change in fluorescence intensity at 1 uM incubated for 0.5 hrs in presence of different concentrations of DNA by fluorescence spectra analysis; type: nucleic-acid assay
[32] = target: dsDNA; test: Binding affinity to double stranded DNA ssab (unknown origin) incubated for 0.5 hrs in presence of different concentration DNA by fluorescence spectra analysis; type: nucleic-acid assay
[33] = target: Quadruplex DNA; test: Displacement of ThT from human G4-quadruplex Pu27 DNA 5'- TGGGGAGGGTGGGGAGGGTGGGGAAGG-3' incubated for 0.5 hrs by SpectraMax M2 microplate reader analysis; type: nucleic-acid assay
[34] = test system: Quadruplex DNA; test: Binding affinity to human G4-quadruplex Oxy28 DNA 5'- GGGGTTTTGGGGTTTTGGGGTTTTGGGG -3' at 20 uM by UV-Visible absorption spectroscopic analysis; type: nucleic-acid assay

Compound	EC50 [1] [nM]	inhibition [2]	Activity [3] [%]	DC50 [4] [nM]	Activity [5]	Activity [6]	inhibition [7]	Activity [8]	Kd [10] [nM]	Kd [11] [nM]	EC50 [12] [nM]	Activity [13]	EC50 [14] [nM]	Activity [15]	Activity [16]	Activity [17]	viability at 5 µM [18] [%]	DC50 [19] [nM]	Activity [20]	Activity [21]	further results
COc1ccc2cc3[n+](cc2c1OC)CCc1cc2c(cc1-3)OCO2 [BERBERINE]	450	inactive	56.99	580	Active	inactive	inactive	Active	5400	2440	150	Active	130	Active	Active	Active	35.4	56600	inactive	inactive	Activity [9]: inactive; EC50 [22]: 400 nM; Activity [23]: Active; Activity [24]: inactive; DC50 [25]: 2640 nM; Activity [26]: 14.59%; Activity [27]: inactive; Activity [28]: 7.26%; EC50 [29]: 100 nM; Activity [30]: 56.1%; Kd [31]: 4960 nM; EC50 [32]: 1040 nM; DC50 [33]: 540 nM; Activity [34]: Active
C[n+]1cc2c3c(ccc2c2ccc4cc5c(cc4c21)OCO5)OCO3 [SANGUINARIUM]	790	Active	40.85	140	Active	inactive	Active	Active	7190	11000	1070	Active	4150	Active	Active	Active	20.4	5700	Active	Active	EC50 [9]: 610 nM; EC50 [22]: 1230 nM; Activity [23]: Active; Activity [24]: Active; DC50 [25]: 580 nM; Activity [26]: 27.86%; Activity [27]: inactive; Activity [28]: 49.5%; EC50 [29]: 1630 nM; Activity [30]: 29.3%; Activity [31]: inactive; EC50 [32]: 740 nM; DC50 [33]: 260 nM; Activity [34]: Active
COc1ccc2c(c[n+](C)c3c4cc5c(cc4ccc23)OCO5)c1OC [CHELERYTHRINE]	970	Active	36.15	410	Active	inactive	Active	Active	5290	5800	1120	Active	2110	Active	Active	Active	56	6470	Active	Active	EC50 [9]: 1130 nM; EC50 [22]: 1090 nM; Activity [23]: Active; Activity [24]: Active; DC50 [25]: 850 nM; Activity [26]: 30.83%; Activity [27]: inactive; Activity [28]: 35.2%; EC50 [29]: 1060 nM; Activity [30]: 6.96%; Activity [31]: inactive; EC50 [32]: 1060 nM; DC50 [33]: 480 nM; Activity [34]: Active
c1c2c(cc3c1OCO3)-c1cc3ccc4c(c3c[n+]1CC2)OCO4 [COPTISINE]	9390	inactive	57.31	120	Active	inactive	inactive	Active	2170	1150	3920	Active	18500	Active	Active	Active	0.022	38100	inactive	inactive	EC50 [9]: 1690 nM; EC50 [22]: 8040 nM; Activity [23]: Active; Activity [24]: inactive; DC50 [25]: 380 nM; Activity [26]: 14.48%; EC50 [27]: 7120 nM; Activity [28]: 15.3%; EC50 [29]: 7250 nM; Activity [30]: 84.6%; Kd [31]: 3390 nM; EC50 [32]: 5570 nM; DC50 [33]: 140 nM; Activity [34]: Active
